Entries after “also recorded” stand apart in the source; their conditions may differ.
What was measured:
patients [1] = conditions: cited from earlier work; for depression as adverse effect (literature): literature and Physicians' Desk Reference
patients [2] = assay: Hamilton 24 (HAMD) depression scale, multicenter randomized controlled clinical study; type: in vivo, human; conditions: conclusion from the 4-week clinical study, vs ranitidine-group and baseline
Description: The number of cases investigated was 119, which assured that the obtained data reach the level of statistical significance. […] During the statistical evaluation a probability level of p≦0.05 was regarded as significant.
Multicenter, randomized, controlled study; the study can be regarded blind with respect to the psychiatrist's assessment of the results.
4-week treatment period with the administration of the test—or reference medication.
On the occasion of the 1st visit (week-1-0) the recording of the medical history, physical examination, endoscopy (optional), the signing of the consent form, then the assessment of the extent of anxiety during the psychiatric examination, by using the Hamilton 24 (HAMD) and the MADRS (Montgomery Asberg) depression scales as well as the Hamilton Anxiety Rating Scale (HAMA). […]
(§1) The describing statistics (median, quartiles, average, dispersion, case-number, minimum and maximum values) were given for all numerical data variables (age, body weight, height, overall scores for HAMD and MADRS, as well as HAMA). […] The global parameters (the patient's opinion of the changes in the mood and the general condition, the physician's opinion of the general condition of the patient, and the psychiatrist's opinion of the changes in depression and anxiety) were assessed by applying the median-test (SAS NPAR1 WAY method).

patients [3] = conditions: 4-week clinical study
Description: This is followed by a four-week (week 0-4) H2-blocker therapy performed on the basis of the former randomization applying either Quamatel®- or Zantac®—therapy. During randomization they have also taken the female-male ratio into consideration.
as §1

| Structure (SMILES) | depression as adverse effect (literature) (patients [1]) | antidepressant / depression-reducing effect, conclusion of the study (patients [2]) | efficacy in schizophrenia (literature case studies) (patients [1]; case studies) | gastrointestinal efficacy compared with ranitidine (patients [3]) |
| --- | --- | --- | --- | --- |
| CNC(=C[N+](=O)[O-])NCCSCc1ccc(CN(C)C)o1 [ranitidine] | development of depression could be unquestionably associated with ranitidine-therapy |  |  |  |
| CN/C(=N/CCSCc1nc[nH]c1C)NC#N [cimetidine] | marked depressant effect |  |  |  |
| NC(N)=Nc1nc(CSCCC(N)=NS(N)(=O)=O)cs1 [famotidine] | depression as one of the adverse reactions | specific depression-reducing effect; also recorded: significantly detectable antidepressant effect | effective in the management of schizophrenia | practically displaying the same gastrointestinal efficacy |

From US20040010021A1, “Pharmaceutical compositions for the treatment of depression or symptoms suggesting depression” (priority 2000, published 2004)
